Measured values as given in PubChem BioAssay AID1259418 (Broad Institute, 2018).
“And” between values parts separate entries of the source, which are not always exact repeats. Equal entries are not always repeated. Results filed as inconclusive are left out. The source made the active and inactive calls.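 How the source made its calls: active means fitted half-maximal concentration of signal decrease at or below twice the sample's top tested concentration; inconclusive means flat curve between -70 and -30 percent, or poor fit; inactive means flat within 30 percent, signal rise, or potency above limit.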

Each molecule was assayed against T. gondii ME49Luc in IFN-y HeLa, luciferase, 72 h (assay: T. gondii growth inhibition with IFN-gamma, dose response, cell-based, ME49Luc, HeLa, luciferase, 72 h (AID 1259418)).

Structure (SMILES) | AC50
CCc1ccc(S(=O)(=O)N2CCC3(CC2)NCCN=C3NCc2cccc(F)c2)cc1 | 16.3 µM
N#C[C@@H]1N[C@H](CO)[C@H]1c1ccc(-c2cccc(F)c2)cc1 | 26.3 µM
COc1cccc(-c2ccc3c(c2)[C@H]2[C@H](CCN2S(=O)(=O)c2ccccc2F)[C@H](CO)N3)c1 | 19.3 µM
O=C(c1ccc(-n2nc(C(F)(F)F)c3c2CCCC3)cc1)N1CCN(c2cccc(Cl)c2)CC1 | 8.82 µM
Cc1ccccc1S(=O)(=O)N1CC[C@@H]2[C@H]1c1cc(-c3cccc(F)c3)ccc1N(C)[C@H]2CO | 17.7 µM
Cc1ccccc1-c1ccc([C@H]2[C@H](CO)N3C(=O)CN(C(=O)c4ccncc4)C[C@@H]23)cc1 | 21.5 µM
Cc1cc2nc(CN3CCCC(CCc4ccc(F)cc4F)C3)cc(=O)n2[nH]1 (stereo not drawn) | > 20 µM (inactive)
CCc1c(C)sc2c1CCN(Cc1nc(-c3cccc(OC)c3OC)oc1C)C2c1ccccc1 (stereo not drawn) | 15.7 µM
O=C(CCC1N=C2c3ccccc3N=C(SCc3cc(=O)n4cc(Cl)ccc4n3)N2C1=O)NC1CCCCC1 (stereo not drawn) | > 39 µM (inactive)
Cc1nnsc1CN(C)Cc1[nH]c2ccc(F)cc2c1C | > 39 µM (inactive)
CS(=O)(=O)N1CSC[C@@H]1C(=O)NCCc1csc(-c2ccccc2)n1 | 30.8 µM
COc1cccc(CNC2=NCCNC23CCN(S(=O)(=O)c2ccc4c(c2)CCCC4)CC3)c1 | 16.3 µM
Cc1ccc(CNC(=O)COc2nc(C)nc3ccccc23)cc1 | > 39 µM (inactive)
OC[C@H]1N[C@@H](CNCC2CCC2)[C@@H]1c1ccc(C2=CCCCC2)cc1 | 12.4 µM and 20.4 µM
N#C[C@H]1[C@@H](c2ccc(C3=CCCCC3)cc2)[C@@H](CO)N1C(=O)Nc1ccccc1F | 23.2 µM
CN(C)CC(=O)N1[C@H](C#N)[C@H](c2ccc(C#CC3CCCCC3)cc2)[C@@H]1CO | 14.8 µM
O=C(NCc1ccc(F)cc1F)c1cc(-c2cnc(N3CCCC3)nc2)cn1CC1CC1 | 13.2 µM
CN(C)C(=O)c1ccc(-c2ccc3c(c2)[C@@H]2[C@@H](CCN2C(=O)C2CCCC2)[C@H](CO)N3C)cc1 | 20.6 µM
O=S(=O)(c1ccccc1)N1CCc2c([nH]c3ccccc23)C1c1ccc(F)c(F)c1 (stereo not drawn) | 13.9 µM
CN(C)c1nc(N2CCCC2)nc2c1CCN(Cc1ccoc1)CC2 | 16 µM
Cc1c(Cl)cccc1NC(=O)CN1CCC2(CC1)N=C(c1cccc(F)c1)C(=O)N2 | > 39 µM (inactive)
CN(C[C@H]1N[C@@H](CO)[C@@H]1c1ccc(C2=CCCC2)cc1)C(=O)c1cccc(F)c1 | 15.2 µM and 3.49 µM
COc1ccc(CNC2=NCCNC23CCN(S(=O)(=O)c2ccc(CC(C)C)cc2)CC3)cc1 | 6.46 µM

Structure (SMILES) | AC50
Cc1ccc(CCNc2nc(-c3ccc(Cl)cc3)nc3ccccc23)cc1 | 22.7 µM
COc1cccc(-c2ccc([C@H]3[C@H]4CN(C(=O)Cc5ccncc5)CCCCN4[C@H]3CO)cc2)c1 | > 39 µM (inactive)
O=C(c1cnccn1)N1CC(=O)N2[C@H](CO)[C@H](c3ccc(-c4cccc(F)c4)cc3)[C@H]2C1 | 13.9 µM and 25 µM
Cc1ccc(C(=O)Nc2ccc3c(c2)CCC(=O)N3)s1 | 11.6 µM
COc1ccc(-c2nc(NCCN3CCC(C)CC3)c3ccccc3n2)cc1 | 9.97 µM
Clc1ccc(-c2nc(N3CCC(N4CCCCC4)CC3)c3ccccc3n2)cc1 | 18.4 µM
COc1cccc(NC(=O)COc2nc(C)nc3ccccc23)c1 | 36.7 µM
CCc1cnc(N2[C@@H](C#N)[C@@H](c3ccc(C4=CCCCC4)cc3)[C@@H]2CO)s1 | > 20 µM (inactive) and 8.88 µM
O=C(CC1N=C2c3ccccc3N=C(SCc3ccccc3F)N2C1=O)NC1CCCCC1 (stereo not drawn) | 19.1 µM
O=C(NCCCN1CCCC1)C1CCN(Cc2cc3ccccc3n2Cc2ccccc2)CC1 | 23 µM
CCOc1ccc(-c2nc(CN(c3ccc(OCC)cc3)S(=O)(=O)c3ccccc3)c(C)o2)cc1 | 17.1 µM
COc1cccc(CN2CCC3(COCc4cnc(-c5ccccc5)nc43)C2)c1 (stereo not drawn) | 17.4 µM
CCOc1ccccc1N(Cc1nc(-c2ccccc2)oc1C)S(=O)(=O)c1cccs1 | 7.76 µM
Cc1oc(-c2cccc(Cl)c2)nc1CN(c1ccccc1)S(=O)(=O)c1ccccc1 | 6.63 µM
COCC(=O)Nc1ccc(-c2nc(-c3cc(C)ccc3C)co2)cc1 | > 39 µM (inactive)
Cc1ccc(N(Cc2nc(-c3ccccc3)oc2C)S(=O)(=O)c2cccs2)cc1 | 3.53 µM
COc1ccccc1NC(=O)Nc1ccc(-c2nc(-c3ccc(C)cc3C)co2)cc1 | 31.9 µM
COc1ccc(S(=O)(=O)N2CCc3c([nH]c4ccccc34)C2c2cc(F)ccc2F)cc1 (stereo not drawn) | 17.1 µM
COc1ccccc1N(Cc1nc(-c2cccc(C)c2)oc1C)S(=O)(=O)c1ccc(C)cc1 | 9.12 µM
CN1c2ccc(-c3ccccc3)cc2[C@H]2[C@H](CCN2C(=O)CC2CC2)[C@@H]1CO | 18.8 µM
Cc1nc(OCC(=O)Nc2cc(F)ccc2F)c2ccccc2n1 | > 39 µM (inactive)
Cc1ccc(-c2coc(-c3ccc(NC(=O)Nc4cc(F)ccc4F)cc3)n2)cc1 | 27.7 µM
C1=C(c2ccccc2)CC(c2ccccc2)=NN=C1c1ccccc1 | 15.6 µM

Structure (SMILES) | AC50
CS(=O)(=O)N1CCC(C(=O)NCCc2csc(-c3cccs3)n2)CC1 | > 39 µM (inactive)
COc1ccc2c(c1)NC1(CCN(C(=O)c3ccc(F)cc3)CC1)c1cccn1-2 | > 20 µM (inactive)
CCCNC(=O)c1cc(-c2cnc(NCc3ccccc3)nc2)cn1C | 7.07 µM and 17.3 µM
COc1ccccc1NC(=O)N1CCCCN2[C@H](C1)[C@@H](c1ccc(-c3cccc(C#N)c3)cc1)[C@@H]2CO | 21.1 µM
COc1ccc(CNC2=NCCNC23CCN(S(=O)(=O)c2ccc(C(C)C)cc2)CC3)cc1 | 19.9 µM
Cc1ccc(CNC2=NCCNC23CCN(S(=O)(=O)c2cc(C)c(C)cc2C)CC3)cc1 | 4.79 µM
O=C(NCCc1csc(-c2ccccc2)n1)[C@H]1CCCN1C(=O)Cc1ccc(Cl)cc1 | > 39 µM (inactive)
Cc1oc(-c2cccc(Cl)c2)nc1CN1CCc2c(sc3c2CCCC3)C1c1ccccc1 (stereo not drawn) | 6.85 µM
COc1cccc(C#Cc2ccc([C@@H]3[C@H](C#N)N(C(=O)c4ccccn4)[C@H]3CO)cc2)c1 | 20.7 µM
O=C(c1ccc[nH]1)N1CCC2(CC1)COCCN(c1ncccn1)C2 | 7.07 µM
O=C(Nc1ccccc1F)N1CCCCN2[C@@H](CO)[C@@H](c3ccc(/C=C/c4ccccc4)cc3)[C@@H]2C1 | 22 µM
O=S(=O)(c1ccc2c(c1)CCCC2)N1CCC2(CC1)NCCN=C2NCc1cccc(F)c1 | 5.26 µM
O=C(C[C@H]1CC[C@@H]2[C@H](COC[C@@H](O)CN2Cc2ccc(Oc3ccccc3)cc2)O1)N1CCN(c2ccccc2)CC1 | 24 µM
COCC1(C(=O)N2CCc3c(nc(-c4ccccc4)[nH]c3=O)C2)CCC1 | 36.2 µM
COc1ccccc1NC(=O)N1C[C@@H]2N[C@H](C1)C2c1ccc(/C=C/c2ccccc2)cc1 (stereo partly drawn) | 6.84 µM and 4.45 µM and 4.22 µM
O=C(NC1CCCC1)N1CCCCN2[C@@H](CO)[C@H](c3ccc(-c4cccnc4)cc3)[C@@H]2C1 | 23.3 µM
Cc1ccc2c(c1C)-n1cccc1C1(CCN(C(=O)c3ccccc3F)CC1)N2 | > 39 µM (inactive)
CCC(=O)N1CCC2(CC1)Nc1ccc(Cl)cc1-n1cccc12 | 31 µM
O=C(CCC1N=C2c3ccccc3N=C(SCc3ccc(Cl)cc3)N2C1=O)NCc1cccs1 (stereo not drawn) | 14.9 µM
COCCN(C)C(=O)c1cc(-c2ccn(-c3ccc(OC)cc3)n2)n2ccccc12 | 22.3 µM
COC(=O)c1ccccc1NC(=O)COc1nc(C)nc2ccccc12 | 20.9 µM
N#Cc1cccc(-c2ccc3c(c2)[C@@H]2[C@@H](CCN2S(=O)(=O)c2ccc(F)cc2)[C@@H](CO)N3)c1 | 15.7 µM
